Assay results reported in article PMC10819485 (2024).

Experiments:
[1] = test system: HEV2 (MST form) (DNA, aptamer) AGCAGATGAATCTGAATTTTT; assay: microscale thermophoresis; conditions: NaCl 300 mM, MgCl2 5 mM (aptamer buffer); 20 mM Tris pH 7.6, 0.01% Tween 20; highest E2 1000 nM
[2] = test system: M70 (electrode form) (DNA, aptamer) GCTTCCAGCTTATTGAATTACACGCAGAGGGTAGCGGCTCTGCGCATTCAATTGCTGCGCGCTGAAGCGCGGAAGC; assay: differential pulse voltammetry aptasensor; conditions: peak current falls with log E2, 5 pg/mL to 20 ng/mL; immobilised aptamer
[3] = test system: HEV1 (colorimetric form) (DNA, aptamer) AGCAGCTTATTGCTGAATTTTT; assay: AuNP aggregation colorimetry; conditions: NaCl; A660/A520 ratio rises with E2, 0.2 to 1 μg/mL; room temperature
[4] = test system: HEV1 (electrode form) (DNA, aptamer) AGCAGCTTATTGCTGAATTTTT; assay: differential pulse voltammetry aptasensor; conditions: peak current falls with log E2, from 5 pg/mL; immobilised aptamer
[5] = test system: M70 (colorimetric form) (DNA, aptamer) GCTTCCAGCTTATTGAATTACACGCAGAGGGTAGCGGCTCTGCGCATTCAATTGCTGCGCGCTGAAGCGCGGAAGC; assay: AuNP aggregation colorimetry; conditions: NaCl; A660/A520 ratio rises with E2; room temperature
[6] = test system: HEV1 (MST form) (DNA, aptamer) AGCAGCTTATTGCTGAATTTTT; assay: microscale thermophoresis; conditions: NaCl 300 mM, MgCl2 5 mM (aptamer buffer); 20 mM Tris pH 7.6, 0.01% Tween 20; E2 up to 1000 nM; 30 min incubation; abstract 92 nM

In the case of `C[C@]12CC[C@@H]3c4ccc(O)cc4CC[C@H]3[C@@H]1CC[C@@H]2O`, the binding [1] is reported as “no”, the binding [2] is reported as “yes” and the binding [3] is reported as “yes”. For the same compound, the binding [4] was “yes”, the binding [5] was “yes” and the KD [6] was 0.09276 ± 0.06602 µM.
